Measured values: patent publication US20240368127A1, “HSD17B13 INHIBITORS AND USES THEREOF” (FL2022-001, Inc., priority 2021, published 2024)
Counter-ions that a name gives are not always drawn.

Biological target: T1, Recombinant human HSD17B13 enzyme (Homo sapiens, UniProt Q7Z5P4)
T1 sequence (Q7Z5P4 20-300): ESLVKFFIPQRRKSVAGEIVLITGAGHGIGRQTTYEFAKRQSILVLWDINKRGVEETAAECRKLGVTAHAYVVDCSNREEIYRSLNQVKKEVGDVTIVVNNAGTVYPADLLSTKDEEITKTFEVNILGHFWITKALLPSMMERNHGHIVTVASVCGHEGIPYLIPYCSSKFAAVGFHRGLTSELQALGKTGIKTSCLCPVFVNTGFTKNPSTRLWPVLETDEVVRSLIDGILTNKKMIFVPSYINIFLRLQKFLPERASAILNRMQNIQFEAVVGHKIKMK
Test: HSD17b13 NAD(P)H-Glo biochemical assay
Details: 50 μM estradiol, 1 mM NAD+, 37° C. for 3 hours; read-out: HSD17β13 IC50
In short: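 Enzyme preincubated with inhibitor 20 min at RT in 20 mM Tris pH7.4, 0.002% Tween-20, 0.02% BSA, then reacted 3 h at 37° C with 50 μM estradiol and 1 mM NAD+ (final). NADH formation read by NAD(P)H-Glo luminescence after 1 h at RT.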

Row | SMILES | IC50 [nM]
1 | Cn1nc(-c2cc(C(F)(F)F)c(F)c(O)c2F)c2cnc(N3CCO[C@@H](Cc4cccc(S(N)(=O)=O)c4)C3)nc21 [Compound 12.06, (S)-3-((4-(3-(2,4-Difluoro-3-hydroxy-5-(trifluoromethyl)phenyl)-1-methyl-1H-pyrazolo[3,4-d]pyrimidin-6-yl)morpholin-2-yl)methyl)benzenesulfonamide] | ≤ 100
2 | Cc1cccc(C[C@H]2CN(c3ncc4c(-c5cc(C(F)(F)F)c(F)c(O)c5F)nn(C)c4n3)CCO2)c1 [Compound 12.07, (S)-2,6-Difluoro-3-(1-methyl-6-(2-(3-methylbenzyl)morpholin)-1H-pyrazolo[3,4-d]pyrimidin-3-yl)-5-(trifluoromethyl)phenol] | ≤ 100
3 | Cn1nc(-c2cc(C(F)(F)F)c(F)c(O)c2F)c2cnc(N3CCO[C@@H](Cc4ccc(S(N)(=O)=O)cc4)C3)nc21 [Compound 12.08, (S)-4-((4-(3-(2,4-Difluoro-3-hydroxy-5-(trifluoromethyl)phenyl)-1-methyl-1H-pyrazolo[3,4-d]pyrimidin-6-yl)morpholin-2-y)methyl)benzenesulfonamide] | ≤ 100
4 | Cc1ccc([C@@H](O)[C@H]2CN(c3ncc4c(-c5cc(C(F)(F)F)c(F)c(O)c5F)nn(C)c4n3)CCO2)cc1 [Compound 13, 2,6-Difluoro-3-(6-((R)-2-((R)-hydroxy(p-tolyl)methyl)morpholino)-1-methyl-1H-pyrazolo[3,4-d]pyrimidin-3-yl)-5-(trifluoromethyl)phenol] | ≤ 100
5 | Cn1nc(-c2cc(C(F)(F)F)c(F)c(O)c2F)c2cnc(C3CCCCN3Cc3ccccc3)nc21 (centres unmarked) [Compound 14, 3-(6-(1-Benzylpiperidin-2-yl)-1-methyl-1H-pyrazolo[3,4-d]pyrimidin-3-yl)-2,6-difluoro-5-(trifluoromethyl)phenol hydrochloride] | 100 to 1000
6 | Cn1nc(-c2cc(C(F)(F)F)c(F)c(O)c2F)c2cnc(C3CCCN(Cc4ccccc4)C3)nc21 (centres unmarked) [Compound 14.01, 3-(6-(1-Benzylpiperidin-3-yl)-1-methyl-1H-pyrazolo[3,4-d]pyrimidin-3-yl)-2,6-difluoro-5-(trifluoromethyl)phenol hydrochloride] | 100 to 1000
7 | Cn1nc(-c2cc(C(F)(F)F)c(F)c(O)c2F)c2cnc(N3CCN(S(C)(=O)=O)CC3CC3CCCCC3)nc21 (centres unmarked) [Compound 15, 3-(6-(2-(Cyclohexylmethyl)-4-(methylsulfonyl)piperazin-1-yl)-1-methyl-1H-pyrazolo[3,4-d]pyrimidin-3-yl)-2,6-difluoro-5-(trifluoromethyl)phenol] | ≤ 100
8 | Cn1nc(-c2cc(C(F)(F)F)c(F)c(O)c2F)c2cnc(N3CCN(S(C)(=O)=O)C[C@H]3CC3CCCCC3)nc21 [Compound 15.02, (R)-3-(6-(2-(Cyclohexylmethyl)-4-(methylsulfonyl)piperazin-1-yl)-1-methyl-1H-pyrazolo[3,4-d]pyrimidin-3-yl)-2,6-difluoro-5-(trifluoromethyl)phenol] | ≤ 100
9 | Cn1nc(-c2cc(C(F)(F)F)c(F)c(O)c2F)c2cnc(N3CCOCC3CC3CCCCC3)nc21 (centres unmarked) [Compound 15.03, 3-(6-(3-(Cyclohexylmethyl)morpholino)-1-methyl-1H-pyrazolo[3,4-d]pyrimidin-3-yl)-2,6-difluoro-5-(trifluoromethyl)phenol] | ≤ 100
10 | Cn1nc(-c2cc(C(F)(F)F)c(F)c(O)c2F)c2cnc(N3CCOC[C@@H]3CC3CCCCC3)nc21 [Compound 15.05, (S)-3-(6-(3-(Cyclohexylmethyl)morpholino)-1-methyl-1H-pyrazolo[3,4-d]pyrimidin-3-yl)-2,6-difluoro-5-(trifluoromethyl)phenol] | ≤ 100
11 | Cn1nc(-c2cc(C(F)(F)F)c(F)c(O)c2F)c2cnc(N3CCOCC3Cc3ccccn3)nc21 (centres unmarked) [Compound 15.06, 2,6-Difluoro-3-(1-methyl-6-(3-(pyridin-2-ylmethyl)morpholino)-1H-pyrazolo[3,4-d]pyrimidin-3-yl)-5-(trifluoromethyl)phenol] | ≤ 100
12 | Cn1nc(-c2cc(C(F)(F)F)c(F)c(O)c2F)c2cnc(N3CCOCC3Cc3cccnc3)nc21 (centres unmarked) [Compound 15.07, 2,6-Difluoro-3-(1-methyl-6-(3-(pyridin-3-ylmethyl)morpholino)-1H-pyrazolo[3,4-d]pyrimidin-3-yl)-5-(trifluoromethyl)phenol] | ≤ 100
13 | Cn1nc(-c2cc(C(F)(F)F)c(F)c(O)c2F)c2cnc(N3CCOCC3Cc3ccncc3)nc21 (centres unmarked) [Compound 15.08, 2,6-Difluoro-3-(1-methyl-6-(3-(pyridin-4-ylmethyl)morpholino)-1H-pyrazolo[3,4-d]pyrimidin-3-yl)-5-(trifluoromethyl)phenol] | ≤ 100
14 | Cn1nc(-c2cc(C(F)(F)F)c(F)c(O)c2F)c2cnc(N3CC(=O)NC[C@H]3Cc3ccccc3)nc21 [Compound 15.09, (R)-5-Benzyl-4-(3-(2,4-difluoro-3-hydroxy-5-(trifluoromethyl)phenyl)-1-methyl-1H-pyrazolo[3,4-d]pyrimidin-6-yl)piperazin-2-one] | ≤ 100
15 | Cn1nc(-c2cc(C(F)(F)F)c(F)c(O)c2F)c2cnc(N3CC[C@@H]3Cc3ccccc3)nc21 [Compound 15.11, (S)-3-(6-(2-Benzylazetidin-1-yl)-1-methyl-1H-pyrazolo[3,4-d]pyrimidin-3-yl)-2,6-difluoro-5-(trifluoromethyl)phenol] | ≤ 100
16 | CCn1nc(-c2cc(C(F)(F)F)c(F)c(O)c2F)c2cnc(N3CCOC[C@H]3Cc3ccccc3)nc21 [Compound 15.12, (R)-3-(6-(3-Benzylmorpholino)-1-ethyl-1H-pyrazolo[3,4-d]pyrimidin-3-yl)-2,6-difluoro-5-(trifluoromethyl)phenol] | ≤ 100
17 | Cn1nc(-c2cc(C(F)(F)F)c(F)c(O)c2F)c2cnc(N3CCOC[C@H]3C(C)(C)O)nc21 [Compound 15.13, (S)-2,6-Difluoro-3-(6-(3-(2-hydroxypropan-2-yl)morpholino)-1-methyl-1H-pyrazolo[3,4-d]pyrimidin-3-yl)-5-(trifluoromethyl)phenol] | ≤ 100
